According to US9115101B2 (Genentech, Inc., priority 2012, dated 2015):
pIC50: −log10 of the molar value.

Molecular target: T1, RORc ligand binding domain (Homo sapiens, UniProt P51449)
T1 construct: host or cells: E. coli
T1 sequence (P51449 269-508 limits assumed): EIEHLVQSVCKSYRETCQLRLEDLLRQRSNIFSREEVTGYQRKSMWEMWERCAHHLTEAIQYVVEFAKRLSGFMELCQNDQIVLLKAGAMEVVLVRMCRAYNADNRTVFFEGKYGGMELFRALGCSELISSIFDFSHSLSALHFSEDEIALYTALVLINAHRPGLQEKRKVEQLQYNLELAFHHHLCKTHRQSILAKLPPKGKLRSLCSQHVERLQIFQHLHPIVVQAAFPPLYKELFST
Experiment: In Vitro RORc Ligand Binding Assay (25-[3H]hydroxycholesterol radioligand filtration)
Details: In Vitro RORc Ligand Binding Assay; Table 4; read-out: RORc IC50

Structure (SMILES) | pIC50
CC(=O)N1CCN(c2ccc(CN3[C@@H](C)CCC(c4ccccc4)S3(=O)=O)cc2Cl)CC1 (single isomer, unassigned) [Example 163] | 7.24
CC(=O)N1CCN(c2ccc(CN3[C@@H](C)CCC(c4ccccc4)S3(=O)=O)cc2Cl)CC1 (single isomer, unassigned) [Example 164] | 6.94
C[C@H]1CCC(c2ccccc2)S(=O)(=O)N1Cc1ccc(NC2CCN(S(C)(=O)=O)CC2)cc1F (single isomer, unassigned) [Example 166] | 7.60
C[C@H]1CCC(c2ccccc2)S(=O)(=O)N1Cc1ccc(NC2CCN(S(C)(=O)=O)CC2)cc1F (single isomer, unassigned) [Example 167] | 8.05
CC(=O)N1CCN(c2ccc(CN3CC(C)(C)CC(c4ccccc4)S3(=O)=O)c(F)c2)CC1 (single isomer, unassigned) [Example 168, 1-{4-[4-(4,4-Dimethyl-1,1-dioxo-6-phenyl-[1,2]thiazinan-2-ylmethyl)-3-fluoro-phenyl]-piperazin-1-yl}-ethanone] | 6.00
CC(=O)N1CCN(c2ccc(CN3C[C@H](C)CC(c4ccccc4)S3(=O)=O)c(F)c2)CC1 (single isomer, unassigned) [Example 169] | 6.88
CC(=O)N1CCN(c2ccc(CN3C[C@H](C)CC(c4ccccc4)S3(=O)=O)c(F)c2)CC1 (single isomer, unassigned) [Example 170] | 7.27
CC(=O)N1CCN(c2ccc(CN3CC(C)(C)CC(c4ccccc4)S3(=O)=O)c(F)c2)CC1 (single isomer, unassigned) [Example 171, 1-{4-[4-(4,4-Dimethyl-1,1-dioxo-6-phenyl-[1,2]thiazinan-2-ylmethyl)-3-fluoro-phenyl]-piperazin-1-yl}-ethanone] | 6.70
CC(=O)N1CCN(c2ccc(CN3[C@@H](C)CCC(c4ccc(C#N)cc4)S3(=O)=O)c(F)c2)CC1 (single isomer, unassigned) [Example 172] | 5.99
CC(=O)N1CCN(c2ccc(CN3[C@@H](C)CCC(c4ccc(C#N)cc4)S3(=O)=O)c(F)c2)CC1 (single isomer, unassigned) [Example 173] | 5.69
CC(=O)N1CCN(c2ccc(CN3[C@@H](C)CCC(c4ccc(Cl)cc4)S3(=O)=O)c(F)c2)CC1 (single isomer, unassigned) [Example 174] | 7.11
CC(=O)N1CCN(c2ccc(CN3[C@@H](C)CCC(c4ccc(Cl)cc4)S3(=O)=O)c(F)c2)CC1 (single isomer, unassigned) [Example 175] | 7.52
COc1ccc(C2CC[C@H](C)N(Cc3ccc(N4CCN(C(C)=O)CC4)cc3F)S2(=O)=O)cc1 (single isomer, unassigned) [Example 176] | 6.88
COc1ccc(C2CC[C@H](C)N(Cc3ccc(N4CCN(C(C)=O)CC4)cc3F)S2(=O)=O)cc1 (single isomer, unassigned) [Example 177] | 6.83
CC(=O)N1CCN(c2cnc(CN3[C@@H](C)CCC(c4ccccc4)S3(=O)=O)cn2)CC1 (single isomer, unassigned) [Example 178] | 5.84
CC(=O)N1CCN(c2cnc(CN3[C@@H](C)CCC(c4ccccc4)S3(=O)=O)cn2)CC1 (single isomer, unassigned) [Example 179] | 6.03
C[C@H](O)C(=O)N1C[C@H]2C[C@@H]1CN2c1ccc(CN2[C@@H](C)CCC(c3ccccc3)S2(=O)=O)c(F)c1 (single isomer, unassigned) [Example 182] | 7.39

Structure (SMILES) | pIC50
C[C@H](O)C(=O)N1C[C@H]2C[C@@H]1CN2c1ccc(CN2[C@@H](C)CCC(c3ccccc3)S2(=O)=O)c(F)c1 (single isomer, unassigned) [Example 183] | 7.40
CC(=O)N1CCN(c2ccc(CN3[C@@H](C)CCC(c4ccc(C)cc4)S3(=O)=O)c(F)c2)CC1 (single isomer, unassigned) [Example 184] | 7.01
CC(=O)N1CCN(c2ccc(CN3[C@@H](C)CCC(c4cccc(Cl)c4)S3(=O)=O)c(F)c2)CC1 (single isomer, unassigned) [Example 185] | 7.60
COc1cccc(C2CC[C@H](C)N(Cc3ccc(N4CCN(C(C)=O)CC4)cc3F)S2(=O)=O)c1 (single isomer, unassigned) [Example 190] | 6.93
COc1cccc(C2CC[C@H](C)N(Cc3ccc(N4CCN(C(C)=O)CC4)cc3F)S2(=O)=O)c1 (single isomer, unassigned) [Example 191] | 6.94
CC(=O)N1CCN(c2ccc(CN3[C@@H](C)CCC(c4cccc(C)c4)S3(=O)=O)c(F)c2)CC1 (single isomer, unassigned) [Example 192] | 8.22
CC(=O)N1CCN(c2ccc(CN3[C@@H](C)CCC(c4cccc(C)c4)S3(=O)=O)c(F)c2)CC1 (single isomer, unassigned) [Example 193] | 7.62
CC[C@H]1CCC(c2ccccc2)S(=O)(=O)N1Cc1ccc(N2CCN(C(C)=O)CC2)cc1F (single isomer, unassigned) [Example 194] | 7.74
CC[C@H]1CCC(c2ccccc2)S(=O)(=O)N1Cc1ccc(N2CCN(C(C)=O)CC2)cc1F (single isomer, unassigned) [Example 195] | 7.14
CC(=O)N1CCN(c2ccc(CN3CC4(CC4)CC(c4ccccc4)S3(=O)=O)c(F)c2)CC1 (single isomer, unassigned) [Example 196, 1-{4-[4-(6,6-Dioxo-7-phenyl-6-thia-5-aza-spiro[2.5]oct-5-ylmethyl)-3-fluoro-phenyl]-piperazin-1-yl}-ethanone] | 6.72
CC(=O)N1CCN(c2ccc(CN3C[C@@H](C)CC(c4ccccc4)S3(=O)=O)c(F)c2)CC1 (single isomer, unassigned) [Example 197] | 6.45
CC(=O)N1CCN(c2ccc(CN3C[C@@H](C)CC(c4ccccc4)S3(=O)=O)c(F)c2)CC1 (single isomer, unassigned) [Example 198] | 7.72
CC(=O)N1CCN(c2ccc(CN3CC4(CC4)CC(c4ccccc4)S3(=O)=O)c(F)c2)CC1 (single isomer, unassigned) [Example 199, 1-{4-[4-(6,6-Dioxo-7-phenyl-6-thia-5-aza-spiro[2.5]oct-5-ylmethyl)-3-fluoro-phenyl]-piperazin-1-yl}-ethanone] | 7.85
CC(=O)N1CCN(c2ccc(CN3[C@@H](C)CCC(c4cccc(Cl)c4)S3(=O)=O)c(F)c2)CC1 (single isomer, unassigned) [Example 200] | 7.77
CC(=O)N1CCN(c2ccc(CN3[C@@H](C)CCC(c4ccccc4Cl)S3(=O)=O)c(F)c2)CC1 (single isomer, unassigned) [Example 201] | 6.74
CC(=O)N1CCN(c2ccc(CN3[C@@H](C)CCC(c4cccc(C#N)c4)S3(=O)=O)c(F)c2)CC1 (single isomer, unassigned) [Example 202] | 6.13

Now from value to compound:

pIC50 | Structure (SMILES)
6.69 | CC(=O)N1CCN(c2ccc(CN3[C@@H](C)CCC(c4cccc(C#N)c4)S3(=O)=O)c(F)c2)CC1 (single isomer, unassigned) [Example 203]
7.28 | CC(=O)N1CCN(c2ccc(CN3[C@@H](C)CC[C@@H](c4ccccc4Cl)S3(=O)=O)c(F)c2)CC1 (single isomer, unassigned) [Example 204]
6.51 | CC(=O)N1CCN(c2ccc(CN3[C@@H](C)CCC(c4ccccc4C)S3(=O)=O)c(F)c2)CC1 (single isomer, unassigned) [Example 205]
7.85 | CC(=O)N1CCN(c2ccc(CN3[C@@H](C)CCC(c4ccccc4C)S3(=O)=O)c(F)c2)CC1 (single isomer, unassigned) [Example 206]
5.74 | CC(=O)N1CCN(c2ccc(CN3[C@@H](C)CCC(c4ccccc4C#N)S3(=O)=O)c(F)c2)CC1 (single isomer, unassigned) [Example 207]
7.49 | CC(=O)N1CCN(c2ccc(CN3[C@@H](C)CCC(c4ccccc4C#N)S3(=O)=O)c(F)c2)CC1 (single isomer, unassigned) [Example 208]
7.70 | C[C@H]1CCC(c2ccccc2)S(=O)(=O)N1Cc1ccc(N2CCC(c3ccn[nH]3)CC2)cc1F (single isomer, unassigned) [Example 211]
7.80 | C[C@H]1CCC(c2ccccc2)S(=O)(=O)N1Cc1ccc(N2CCC(c3ccn[nH]3)CC2)cc1F (single isomer, unassigned) [Example 212]
7.12 | C[C@H]1CCC(c2ccccc2)S(=O)(=O)N1Cc1ccc(N2CCC(n3cnnc3)CC2)cc1 (single isomer, unassigned) [Example 213]
6.62 | C[C@H]1CCC(c2ccccc2)S(=O)(=O)N1Cc1ccc(N2CCC(n3cnnc3)CC2)cc1 (single isomer, unassigned) [Example 214]
7.96 | C[C@H]1CCC(c2ccccc2)S(=O)(=O)N1Cc1ccc(N2CCC(n3ccnn3)CC2)cc1F (single isomer, unassigned) [Example 218]
7.38 | C[C@H]1CCC(c2ccccc2)S(=O)(=O)N1Cc1ccc(N2CCC(c3ncno3)CC2)cc1F (single isomer, unassigned) [Example 219]
7.37 | C[C@H]1CCC(c2ccccc2)S(=O)(=O)N1Cc1ccc(N2CCC(c3ncno3)CC2)cc1F (single isomer, unassigned) [Example 220]
7.07 | C[C@H]1CCC(c2ccccc2)S(=O)(=O)N1Cc1ccc(N2CCC(C(N)=O)CC2)cc1F (single isomer, unassigned) [Example 221]
6.87 | COc1ccccc1C1CC[C@H](C)N(Cc2ccc(N3CCN(C(C)=O)CC3)cc2F)S1(=O)=O (single isomer, unassigned) [Example 223]
7.21 | COc1ccccc1C1CC[C@H](C)N(Cc2ccc(N3CCN(C(C)=O)CC3)cc2F)S1(=O)=O (single isomer, unassigned) [Example 224]
6.82 | C[C@H]1CCC(c2ccccc2)S(=O)(=O)N1Cc1ccc(N2CCC(c3nnc[nH]3)CC2)cc1F (single isomer, unassigned) [Example 225]
